In PubChem BioAssay AID2060492 (Molecular Pharmacology Branch, DTP, NCI, 2025):

Test system: 695427-040-R-J1-PDC complex spheroids, viability percent T/C
Test: Anticancer human tumor 695427-040-R-J1-PDC patient-derived colon adenocarcinoma cell line growth inhibition [GQUAD]
Conditions: for IC50: curve of first compound; for viability, T/C: stronger effect = lower value
Source text: DNA G-quadruplex Stabilizer Agents in Combinations in Complex Spheroids
A high-throughput screen of multi-cell type tumor spheroids was designed to identify active combinations of DNA G-quadruplex stabilizer agents and targeted small molecules. Complex spheroids include a stromal component modeled by human endothelial cells (HUVEC) and fibroblasts modeled by human mesenchymal stem cells (MSCs). The concentration ranges selected for each drug and investigational agent were based upon clinically achievable concentrations if the clinical Cmax of the agent was known.
Compounds. The drugs and investigational agents: pidnarulex (CX-5461; NSC782164), APTO-253 (NSC789042), BRACO-19 (NSC847499), peposertib (NSC802822), ceralasertib (NSC780249), elimusertib (NSC800525), camonsertib (NSC841442), AZD-1390 (NSC803789), olaparib (NSC753686), talazoparib (NSC767125), ART-558 (NSC835418), sotorasib (NSC818433), MRTX-1133 (NSC836407), SN-38 (NSC673596), topotecan (NSC609699), etoposide (NSC141540), doxorubicin (NSC123127), gemcitabine (NSC613327), 5-fluorouracil (NSC19893), paclitaxel (NSC125973), vemurafenib (NSC761431), panobinostat (NSC761190), R-306465 (JNJ-16241199; NSC773264), adavosertib (NSC754352), TP-3654 (NSC805149), carboplatin (NSC241240), KSQ-4279 (NSC840948), and staurosporine (NSC755774) were obtained from the National Cancer Institute (NCI) Developmental Therapeutics Program Chemical Repository (34). The FDA-approved anticancer drug set is available from the NCI Developmental Therapeutics Program. […] The stock solutions were prepared in dimethyl sulfoxide (DMSO, Sigma-Aldrich, St. Louis, MO, cat. D2650) at 800-fold the tested concentration and stored at -70 degrees C prior to their use. All drugs and investigational agents were tested over a range starting from a high concentration at or near the clinical Cmax and decreasing in half-log increments. If the clinical Cmax for an agent had not been determined, the highest concentration tested was 10 microM.
2.3 Cell Culture. All cells were maintained in an incubator at 37 degrees C and 5% CO2 with 95% humidity. The PDC lines were cultured according to standard operating procedures established by the NCI PDMR. All PDCs were thawed and cultured in Matrigel-coated flasks prepared with a working solution of 1X Ham's F-12 nutrient mix, without supplementation (Invitrogen, cat. 11765054), 100 U/mL penicillin-streptomycin (Invitrogen, cat. 15140122), and 2.5% Matrigel (Corning Inc., cat. 354248) for the first three passages. The 857933-349-R-J2-PDC line was cultured in 6C/Colon 1B media, which includes advanced DMEM/F-12 (Thermo Fisher Scientific, cat. 12634028), 10 mM HEPES (Thermo Fisher Scientific, cat. 15630080), 1X GlutaMAX supplement (Thermo Fisher Scientific, cat. 35050061), 0.1 mg/mL primocin (InvivoGen, cat. ant-pm-2), 10% defined fetal bovine serum, heat inactivated (HyClone Laboratories Inc., cat. SH30070.03HI), 50% L-WRN conditioned media (ATCC, cat. CRL-3276), 1.25 mM N-Acetyl-L-cysteine (Sigma-Aldrich, cat. A9165), 10 mM nicotinamide (Sigma-Aldrich, cat. N0636), 1X B-27 supplement (Thermo Fisher Scientific, cat. 17504044), 1X N-2 supplement (Thermo Fisher Scientific, cat. 17502048), 10 microM Y-27632 dihydrochloride (Tocris Bioscience, cat. 1254), and 50 ng/mL human EGF recombinant protein (Thermo Fisher Scientific, cat. PHG0311). The 485176-168-R4-J1-PDC line was cultured in Panc media, which includes all 6C/Colon 1B media components plus 100 ng/mL human FGF-10 (Thermo Fisher Scientific, cat. 100-26), 500 nM SB-431542 (Selleckchem, cat. S1067), and gastrin (Tocris, cat. 3006).
[…]

[1] = second compound 0.0316 µM, first compound 0.0316 µM
[2] = second compound 0.0316 µM, first compound 0.1 µM
[3] = second compound 0.0316 µM, first compound 0.316 µM
[4] = second compound 0.0316 µM, first compound 1 µM
[5] = second compound 0.0316 µM, first compound 3.16 µM
[6] = second compound 0.0316 µM, first compound 10 µM
[7] = second compound 0.1 µM, first compound 0.0316 µM
[8] = second compound 0.1 µM, first compound 0.1 µM
[9] = second compound 0.1 µM, first compound 0.316 µM
[10] = second compound 0.1 µM, first compound 1 µM
[11] = second compound 0.1 µM, first compound 3.16 µM
[12] = second compound 0.1 µM, first compound 10 µM
[13] = second compound 0.316 µM, first compound 0.0316 µM
[14] = second compound 0.316 µM, first compound 0.1 µM
[15] = second compound 0.316 µM, first compound 0.316 µM
[16] = second compound 0.316 µM, first compound 1 µM
[17] = second compound 0.316 µM, first compound 3.16 µM
[18] = second compound 0.316 µM, first compound 10 µM
[19] = second compound 1 µM, first compound 0.0316 µM
[20] = second compound 1 µM, first compound 0.1 µM
[21] = second compound 1 µM, first compound 0.316 µM
[22] = second compound 1 µM, first compound 1 µM
[23] = second compound 1 µM, first compound 3.16 µM
[24] = second compound 1 µM, first compound 10 µM
[25] = second compound 3.16 µM, first compound 0.0316 µM
[26] = second compound 3.16 µM, first compound 0.1 µM
[27] = second compound 3.16 µM, first compound 0.316 µM
[28] = second compound 3.16 µM, first compound 1 µM
[29] = second compound 3.16 µM, first compound 3.16 µM
[30] = second compound 3.16 µM, first compound 10 µM
[31] = second compound 10 µM, first compound 0.0316 µM
[32] = second compound 10 µM, first compound 0.1 µM
[33] = second compound 10 µM, first compound 0.316 µM
[34] = second compound 10 µM, first compound 1 µM
[35] = second compound 10 µM, first compound 3.16 µM
[36] = second compound 10 µM, first compound 10 µM
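Also: spheroids exposed to compounds for seven days before readout.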

C#Cc1c(F)ccc2cc(O)cc(-c3ncc4c(N5CC6CCC(C5)N6)nc(OCC56CCCN5CC(F)C6)nc4c3F)c12 (stereo unspecified) + Cc1[nH]c2ccc(F)cc2c1-c1nc2c3cccnc3c3ncccc3c2[nH]1
IC50 (second compound 0.0316 µM): 1.58 µM | IC50 (second compound 0.1 µM): 1.28 µM | IC50 (second compound 0.316 µM): 1.01 µM | IC50 (second compound 1 µM): 0.932 µM | IC50 (second compound 3.16 µM): 0.444 µM | IC50 (second compound 10 µM): 0.438 µM | viability, T/C [1]: 105% | viability, T/C [2]: 95.3% | viability, T/C [3]: 99.3% | viability, T/C [4]: 75.5% | viability, T/C [5]: 10.3% | viability, T/C [6]: 11.7% | viability, T/C [7]: 117% | viability, T/C [8]: 91.6% | viability, T/C [9]: 93.7% | viability, T/C [10]: 62.3% | viability, T/C [11]: 7.36% | viability, T/C [12]: 8.21% | viability, T/C [13]: 102% | viability, T/C [14]: 96.7% | viability, T/C [15]: 80.4% | viability, T/C [16]: 55.7% | viability, T/C [17]: 5.93% | viability, T/C [18]: 5.99% | viability, T/C [19]: 86.8% | viability, T/C [20]: 84.5% | viability, T/C [21]: 82.5% | viability, T/C [22]: 48% | viability, T/C [23]: 3.1% | viability, T/C [24]: 2.8% | viability, T/C [25]: 73.6% | viability, T/C [26]: 73.2% | viability, T/C [27]: 62.5% | viability, T/C [28]: 19.9% | viability, T/C [29]: 1.77% | viability, T/C [30]: 1.26% | viability, T/C [31]: 70.8% | viability, T/C [32]: 60.4% | viability, T/C [33]: 61.4% | viability, T/C [34]: 21.9% | viability, T/C [35]: 1.1% | viability, T/C [36]: 1.13%

Cc1cccc(N(C)C(=O)C2C(O)CCN2c2nc(C)cc(C(F)(F)F)c2C#N)c1 (stereo unspecified) + Cc1[nH]c2ccc(F)cc2c1-c1nc2c3cccnc3c3ncccc3c2[nH]1
IC50 (second compound 0.0316 µM): > 10 µM | IC50 (second compound 0.1 µM): > 10 µM | IC50 (second compound 0.316 µM): > 10 µM | IC50 (second compound 1 µM): > 10 µM | IC50 (second compound 3.16 µM): > 10 µM | IC50 (second compound 10 µM): > 10 µM | viability, T/C [1]: 109% | viability, T/C [2]: 124% | viability, T/C [3]: 105% | viability, T/C [4]: 106% | viability, T/C [5]: 95.2% | viability, T/C [6]: 92.3% | viability, T/C [7]: 102% | viability, T/C [8]: 88% | viability, T/C [9]: 107% | viability, T/C [10]: 76.3% | viability, T/C [11]: 104% | viability, T/C [12]: 86.4% | viability, T/C [13]: 93.2% | viability, T/C [14]: 91.2% | viability, T/C [15]: 98.8% | viability, T/C [16]: 76.9% | viability, T/C [17]: 91.4% | viability, T/C [18]: 80.5% | viability, T/C [19]: 79.7% | viability, T/C [20]: 89.4% | viability, T/C [21]: 85.2% | viability, T/C [22]: 82.5% | viability, T/C [23]: 93.8% | viability, T/C [24]: 87.1% | viability, T/C [25]: 70.2% | viability, T/C [26]: 75.2% | viability, T/C [27]: 84.8% | viability, T/C [28]: 91.1% | viability, T/C [29]: 95.6% | viability, T/C [30]: 72.6% | viability, T/C [31]: 68.4% | viability, T/C [32]: 78.4% | viability, T/C [33]: 83.8% | viability, T/C [34]: 79.9% | viability, T/C [35]: 88.3% | viability, T/C [36]: 72%

O=c1[nH]cc(F)c(=O)[nH]1 + Cc1[nH]c2ccc(F)cc2c1-c1nc2c3cccnc3c3ncccc3c2[nH]1
IC50 (second compound 0.0316 µM): > 10 µM | IC50 (second compound 0.1 µM): > 10 µM | IC50 (second compound 0.316 µM): > 10 µM | IC50 (second compound 1 µM): > 10 µM | IC50 (second compound 3.16 µM): > 10 µM | IC50 (second compound 10 µM): > 10 µM | viability, T/C [1]: 102% | viability, T/C [2]: 91.1% | viability, T/C [3]: 99.1% | viability, T/C [4]: 92.3% | viability, T/C [5]: 89% | viability, T/C [6]: 108% | viability, T/C [7]: 98.4% | viability, T/C [8]: 77.3% | viability, T/C [9]: 92.2% | viability, T/C [10]: 82.2% | viability, T/C [11]: 94.8% | viability, T/C [12]: 98.6% | viability, T/C [13]: 104% | viability, T/C [14]: 74.1% | viability, T/C [15]: 89.1% | viability, T/C [16]: 62.4% | viability, T/C [17]: 98.8% | viability, T/C [18]: 87% | viability, T/C [19]: 84.5% | viability, T/C [20]: 91.8% | viability, T/C [21]: 76.2% | viability, T/C [22]: 82.3% | viability, T/C [23]: 88.2% | viability, T/C [24]: 89.2% | viability, T/C [25]: 82.1% | viability, T/C [26]: 81.7% | viability, T/C [27]: 83.7% | viability, T/C [28]: 69.8% | viability, T/C [29]: 74.1% | viability, T/C [30]: 66.3% | viability, T/C [31]: 59.8% | viability, T/C [32]: 73% | viability, T/C [33]: 75.8% | viability, T/C [34]: 75.9% | viability, T/C [35]: 74.1% | viability, T/C [36]: 78.3%
